Assay results as given in PubChem BioAssay (NCI).
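A five-concentration, 48-hour dose response in 96-well plates underlies each endpoint, interpolated linearly between surrounding concentrations. GI50: concentration for 50% inhibition of growth. Definition used: TGI = concentration required for complete inhibition of growth.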

How the values were obtained:
Test in all cases: inhibition of tumour cell growth, NCI panel, 48 h
CAKI-1 renal = tested on: CAKI-1 renal
HCT-15 colon = tested on: HCT-15 colon
HL-60(TB) leukemia = tested on: HL-60(TB) leukemia
K-562 leukemia = tested on: K-562 leukemia
KM12 colon = tested on: KM12 colon
OVCAR-4 ovarian = tested on: OVCAR-4 ovarian
MCF7 breast = tested on: MCF7 breast
MDA-MB-435 = tested on: MDA-MB-435
MDA-MB-231 breast = tested on: MDA-MB-231 breast
PC-3 prostate = tested on: PC-3 prostate

SMILES	TGI (CAKI-1 renal) [µM]	TGI (HCT-15 colon) [µM]	TGI (HL-60(TB) leukemia) [µM]	TGI (K-562 leukemia) [µM]	TGI (KM12 colon) [µM]	TGI (OVCAR-4 ovarian) [µM]	TGI (MCF7 breast) [µM]	TGI (MDA-MB-435) [µM]	TGI (MDA-MB-231 breast) [µM]	TGI (PC-3 prostate) [µM]	GI50 (CAKI-1 renal) [µM]	GI50 (HCT-15 colon) [µM]	GI50 (HL-60(TB) leukemia) [µM]	GI50 (K-562 leukemia) [µM]	GI50 (KM12 colon) [µM]	GI50 (MCF7 breast) [µM]	GI50 (MDA-MB-231 breast) [µM]	GI50 (MDA-MB-435) [µM]	GI50 (OVCAR-4 ovarian) [µM]
Cc1[nH]n(C(=O)Cc2ccccc2)c(=O)c1/C=C1\C(=O)C=Cc2ccccc21	> 100	> 100	> 100	> 100	> 100	> 100													
CS(=O)(=O)Sc1ccc(Cl)cc1	24.4	22.2	17.5	42.6	19.7	29.7													
O=[N+]([O-])c1ccc(-c2ccc([C@H]3CC(c4cc(F)c(Cl)cc4Cl)=NN3)o2)cc1	> 100	> 100	16.2	> 100	> 100	> 100	> 100	> 100											
Nc1cc2c(C3OC(CO)C(O)C3O)[nH]nc2c(=S)[nH]1 (stereo unspecified)	> 100	> 100	> 100	> 100	> 100	> 100													
O=[N+]([O-])c1cccc(-c2ccc([C@H]3CC(c4ccc(Cl)cc4)=NN3)o2)c1	60.5	40.3	24.1	55		68.6	> 100	54.4											
COC(=O)c1c(C(=O)OC)c2ccccn2c1-c1cc(C)cc2c1C(=O)C=CC2=O	12.4	15.6	5.04	7.63		18.8		16	15.9	18.5									
CSc1cnc2ccccc2c1Sc1cn(C)c2ccccc2c1=O		> 100	> 100	> 100	> 100	> 100													
CCOC(=O)c1nc2ccccc2nc1Oc1ccc(F)cc1		> 100		> 100	> 100		> 100	> 100	> 100	> 100									
CC(C)C1CC(CO)(CNc2nc(N)nc(Cl)c2C=O)C1 (stereo unspecified)		32.1	3.92	6.15	> 46.7	10.9	> 100	4.58	5.14	5.16									
COc1ccc2nc3cc(Cl)ccc3c(NCCCN(C)CCCNc3ccc4ncn5c6ccccc6c(=O)c3c45)c2c1	4.36	> 9.4	2.2	> 25	4.99	3.95		5.23	6.02	5.34									
c1ccc2sc(C3(N4CCCCCC4)CCCCC3)cc2c1	> 100	53.6	40.9	33.1	31.8	> 100	32.9	71.1	47.5										
CC1CC(=O)C(CC(=O)O)[C@H]1C(C(=O)C(=O)Nc1cc(Cl)ccc1Cl)[N+](=O)[O-] (stereo partly specified)	> 100	> 100	> 100	> 100	> 100														
C/C(=C/C(=O)N(C)c1ccccc1Cl)O[Si](C(C)C)(C(C)C)C(C)C	> 100	37.1			> 100	> 100		> 100	50.1										
COc1ccc(C2OC2C(=O)C23CC4CC(CC(C4)C2)C3)cc1 (stereo unspecified)		> 100	97.2	> 100	> 100	> 100	> 100	> 100	> 100	> 100									
COC(=O)C#CC1(O)C=CC(=O)C=C1		4.32			2.3	17		1.28		5.76									
O=C(O)OC12CCCCCC1C(=O)C1CCCCC12 (stereo unspecified)		> 100	> 100	> 100	> 100	> 100													
O[C@@H]1CCCCN1Cc1cc2cc3c(cc2c2cc(OCc4ccccc4)ccc12)OCO3	2.91	4.37	3.57	4.14	3.16	2.9	2.73	3.06	3.33		1.57	1.81	1.5	1.45	1.59	1.33	1.75	1.63	1.45
CCCCCCCC(=O)N1C2CC3CCC2(CS1(=O)=O)C3(C)C (stereo unspecified)	61.7	26.7	41.9		74.8	> 100	35.8	> 100		69.1									
CC(=O)Nc1ccc2c3c(cc(O)c2c1)N(C(=O)CCCCCCC(=O)Nc1ccc2c4c(cc(O)c2c1)N(C(=O)OC(C)(C)C)CC4CCl)CC3CCl (stereo unspecified)	17.2	> 38.5	0.241	> 100	0.804	3.98	0.739	0.305											
N#CC(C#N)=CNC(=S)Nc1ccc(S(=O)(=O)Nc2nccs2)cc1	> 100	> 100	> 100		> 100	> 100	> 100	> 100	> 100										
CCc1c(N=[N+]=[N-])c2ccccc2oc1=O		> 100	> 100	> 100	> 100	> 100	> 100	> 100	> 100	> 100									
